Laboratory results published in paper PMC12188386, “Selective CBP/EP300 Bromodomain Inhibitors: Novel Epigenetic Tools to Counter TNF-α-Driven Inflammation” (JACS Au, 2025).
In brackets after ≈: the same amount, converted by molar mass. Read-outs that look alike come from different tables or passages of the source. Values belong to the molecule of their own block, whether it stands above or below them.

Tests used:
[1] = target: T1, CBP-BRD (ePL-CBP-BRD in HEK293T cells) (Homo sapiens, UniProt Q92793); experiment: CBP-BRD InCELL Pulse cellular target engagement; type: cell-based; conditions: 1 h compound treatment of HEK293T cells transiently transfected with ePL-CBP-BRD
T1 construct: (residues 1083-1197) was cloned into the pICP-ePL-C vector; expressed in transfected cells; host or cells: HEK293T, transient transfection (vector pICP-ePL-C, DiscoverX 94-4007S)
T1 sequence (Q92793 1083-1197): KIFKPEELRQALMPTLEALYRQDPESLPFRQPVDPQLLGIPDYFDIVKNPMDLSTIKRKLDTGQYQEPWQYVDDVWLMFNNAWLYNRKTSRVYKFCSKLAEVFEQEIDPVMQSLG
Method: The CBP-BRD (residues 1083-1197) was cloned into the pICP-ePL-C vector (DiscoverX, 94-4007S) between the EcoRI and XhoI restriction sites using the hexahistidine-CREBBP plasmid as a template. 5x10^5 HEK293T cells were plated on a 6 well plate the day prior to transfection with 1.5 μg ePL-CBP-BRD plasmid using 5 μl FugeneHD (Promega E2311) in 500 μl optiMEM® (Gibco, 31985062) . Proteins were allowed to express for 20 h before cells were trypsinized, washed and resuspended in low -serum medium (DMEM with 5 % FBS). Compounds were serially diluted in DMSO at 100x, pre-diluted to 5x in complete medium (DMEM with 10 % FBS and 1 % P/S), then added to a suspension of 5x10^3 cells, giving a final DMSO concentration of 1 %. Treated cells were incubated for 1 h at 37 °C in an incubator, followed by a heat shock for 3 min at 45 °C and recovery for 3 min at 22 °C using a thermocycler with a ramp rate of 1 °C/s (SimpliAmp, Thermo Fisher). Stab ilized ePL tag was quantified using the InCELL detecti n Kit isc verX as per the manufacturer’s pr t c usin the -10 working detection solution and a 2 h incubation before reading luminescence with a SpectraMax M5 plate reader (Molecular devices). […]

[2] = tested on: myc expression in LP1 cells; experiment: myc mRNA expression by RT-qPCR; type: cell-based; conditions: 4 h treatment of LP1 cells with 1 μM compound
Method: For myc expression, 1x10^6 LP1 cells were plated the day prior to a 4 h treatment with compounds at a final DMSO concentration of 0.1 %. […]
In all cases, total
(§1) RNA was extracted using the NucleoSpin® RNA kit (Machery -Nagel) and used for cDNA synthesis with the High -Capacity cDNA Reverse Transcription kit (Applied Biosystems). RT-qPCR reactions were performed using PowerSYBR™ green PCR Master Mix (Applied Biosystems) and a LightCycler® 480 (Roche). cDNA was denatured for 10 min at 95 °C followed by 40 cycles of 15 s at 95 °C and 1 min at 60 °C. Cp values were determined as the maximum of the second derivative and target gene expression was compared to that of hprt from the same sample using the 2-ΔCp method. Gene expression was then normalized to the average of the control samples from the same day, or all biological replicates. […]

kinetic solubility = type: physicochemical; conditions: PBS buffer, aqueous buffer, kinetic from dmso stock, PBS pH 7.4, 37°C, ± st. dev. between technical replicates, read-out: Kin. Sol.
Method: Starting from an initial concentration of 100, 50 or 20 µM, a 2-fold serial dilution of the compound (10 mM stock in DMSO) was prepared in a mixture of ACN/Buffer (PBS, pH = 7.4) 2:8, with 1% DMSO. 350 µL was transferred to a 96-Well Plate (Greiner, UV-star) then UV absorption (240-400 nm, 10 nm steps) was measured. The absorption was blank-corrected and plotted against concentration. The wavelength (λ) providing the best fitting straight line […]
was used as the calibration curve. To obtain saturated solutions of the compounds of interest, in duplicates 4.4 µL of a 10 or 5 mM stock in DMSO was added to 436 µL Buffer (PBS, pH = 7.4), to give a final concentration of 100 or 50 µM. Samples were incubated on a shaker (500 rpm) at 37°C for 90 minutes and then filtered (Millex-GV 13 mm, 0.22 µm). 304 µL of the filtrate was mixed with 76 µL of acetonitrile on a dilution plate, from which 350 µL was transferred to a UV-plate and UV-absorption was read using a SpectraMax M5 (Molecular devices). The absorbance was blank-corrected and compared to the calibration curve to […]
solubility. The wavelengths used for the calibration curve are available in Table S4.
Based on the known density of 12.5 % CAPTISOL® solution (d = 1.05755 g/mL at 25 °C), the precise weight of the resulting solution and so the required amount of water by weight was calculated. The water was added portion wise with agitation, vortexing and sonication cycles in between additions. The saturated solutions were then filtered (Millex-GV 13 mm, 0.22 µm). In duplicates, aliquots of the filtrates were taken and diluted with blank 12.5 % CAPTISOL® water solution in either a 1:14 (higher sol. compounds) or 1:7 (lower sol. compounds) ratio, 350 µL was transferred to a 96-Well Plate (Greiner, UV-star) then UV absorption (240-400 nm, 10 nm steps) was measured using a SpectraMax M5 (Molecular devices). The absorption was blank-corrected, compared to the calibration curve obtained during the solubility measurement method above and finally corrected for the dilution ratio to obtain the compound concentration in the saturated 12.5 % CAPTISOL® solution. The calculated concentrations are available in Table S4.
BROMOscan™ assays (provided by Eurofins DiscoverX, US)1,2 […]
coli host derived from the BL21 strain. E. coli were grown to log-phase and infected with T7 phage from a frozen stock (multiplicity of infection = 0.4) and incubated with shaking at 32°C until lysis (90-150 minutes). The lysates were centrifuged (5,000 x g) and filtered (0.2µm) to remove cell debris. Streptavidin-coated magnetic beads were treated with biotinylated small molecule or acetylated peptide ligands for 30 minutes at room temperature to generate affinity resins for bromodomain assays. The liganded beads were blocked with excess biotin and washed with blocking buffer (SeaBlock (Pierce), 1 % BSA, 0.05 % Tween 20, 1 mM DTT) to remove unbound ligand and to reduce non specific phage binding. Binding reactions were assembled by combining bromodomains, liganded affinity beads, and test compounds (see […]
Sodium azide, 7.4 mM DTT). All reactions were performed in polypropylene 384-well plates in a final volume of 0.02 mL. The assay plates were incubated at room temperature with […]
20). The beads were then resuspended in elution buffer (1x PBS, 0.05% Tween 20, 2 µM non-

BRD4(1)-BRD = conditions: cited from earlier work
CBP-BRD = conditions: TR-FRET, read-out: Affinity to CBP-BRD, IC50, cited from earlier work
[3] = tested on: TNF-α-induced IL-8 secretion from THP-1 cells; experiment: cytokine protein measurement (LEGENDPlex); type: cell-based, human; conditions: 10 ng/mL TNF-α, 1 μM compound
Method: For cytokine expression determination, 5x10^5 THP-1 cells were plated on 12 well plates the day prior to treatment with 10 ng/mL recombinant human TNF -α (aa 77-233) protein (R&D systems, 10291 -TA) and compounds at a final concentration of 0.1 % DMSO. In all cases, total […]
Cytokine protein measurements
THP-1 cells were plated and treated as for the quantitative RT -PCR, then the cell culture medium was harvested by pelleting the cells (300g, 3min) and taking the supernatant .
Cytokine protein concentrations were determined using the LEGENDPlexTM Human Inflammation Panel 1 (BioLegend) assay with 25 µL of culture medium following the manufacturer’s instructi ns. amp es were ana zed f w c t metr n an rtessa Biosciences), and data was analyzed using LEGENDPlex software (BioLegend).

MRC5 cells = experiment: viability assay (resazurin); type: cell-based; conditions: three-day treatment, concentration resulting in 70 % viability
Method: MRC5 (2x10^3 cells/well) or THP-1 (8x10^3 cells/well) cells were plated onto 96 well plates and treated with compounds at a final DMSO concentration of 0.5 % (MRC5) or 0.1 % (THP-1).
After 3 days of treatment, resazurin (Acros Organics) was added at a final concentration of 86 μ and incu ated for 2h15 (MRC5) or 3 h (THP-1). Fluorescence (ex. 560 nm, em. 590 nm) was read using a SpectraMax M5 (Molecular devices). GI30 values were calculated as the compound concentration resulting in 70 % viability compared to DMSO treated controls using a nonlinear regression fit using GraphPad Prism with the following equation: (Y=Bottom + (100-Bottom)/(1+(IC50/X)^HillSlope)). […]
After 1.5 h, mice were injected with 10 µL of the prepared CAPTISOL […]
foodpad and also intraperitoneally (for i.p. injection, the 10 µL of CAPTISOL solution was diluted to a final volume of 100 µL using PBS). Organs were collected 5 h after TNF-α […]
LEGENDPlexTM assays (Mouse Pro-inflammatory Chemokine Panel and Mouse Inflammation Panel; Biolegend) were performed to monitor cytokine/chemokine expression. Briefly, popliteal LNs were collected and carefully disrupted in […] ice-cold phosphate buffer, minimizing cell rupture. The suspension was centrifuged at 1,500 rpm for 5 min, and the […]

[4] = tested on: TNF-α-induced cytokine expression in THP-1 cells; experiment: cytokine mRNA expression by RT-qPCR; type: cell-based, human; conditions: 1 h co-treatment of THP-1 cells with 10 ng/mL TNF-α and 1 μM compound
Method: For cytokine expression determination, 5x10^5 THP-1 cells were plated on 12 well plates the day prior to treatment with 10 ng/mL recombinant human TNF -α (aa 77-233) protein (R&D systems, 10291 -TA) and compounds at a final concentration of 0.1 % DMSO. In all cases, total
as §1

cellular binding to CBP-BRD (InCELL Pulse) [1]: able to engage the target very similarly
solubility kinetic at 90 min (kinetic solubility): 71 ± 0.7 µM (≈ 32.4 µg/mL)
SMILES: Cc1cc2c(NC(=O)c3cc(NC(=O)[C@@H]4CCCO4)cc(-c4ccn(C)n4)c3)cccc2nn1 [Compound 6]
myc mRNA expression [2]: significantly decreased the expression level of myc

SMILES: CNC(=O)N1CCc2c(c(N3CCCc4cc(-c5cnn(C)c5)c(C(F)F)cc43)nn2C2CCOCC2)C1 [GNE-781]
Sel. over BRD4(1)-BRD (BRD4(1)-BRD; ref Romero et al., 2017): 5425 fold
IC50 (CBP-BRD; ref Romero et al., 2017): 0.9 nM

solubility kinetic at 90 min (kinetic solubility): 9.5 ± 0.4 µM (≈ 4.63 µg/mL)
SMILES: Cc1cc2c(NC(=O)c3cc(NC(=O)c4ccco4)cc(-c4nn(C)cc4Cl)c3)cccc2nn1 [Compound 3]

solubility kinetic at 90 min (kinetic solubility): 69.9 ± 2.3 µM (≈ 39.5 µg/mL)
SMILES: Cc1cc2c(NC(=O)c3cc(NC(=O)c4ccc(CN5CCN(C)CC5)o4)cc(-c4ccn(C)n4)c3)cccc2nn1 [Compound 8]

solubility kinetic at 90 min (kinetic solubility): 82.6 ± 0.7 µM (≈ 36.5 µg/mL)
SMILES: Cc1cc2c(NC(=O)c3cc(NC(=O)C4COC4)cc(-c4ccn(C)n4)c3)cccc2nn1 [Compound 7]

SMILES: COc1ccc(CCc2nc3cc(-c4c(C)noc4C)ccc3n2C[C@H](C)N2CCOCC2)cc1Cl [SGC-CBP30]
Sel. over BRD4(1)-BRD (BRD4(1)-BRD; ref Hay et al., 2014): 40 fold

SMILES: C[C@@H]1CC(=O)Nc2cccc(-c3ccc4c(c3)c(-c3cnn(C)c3)nn4C)c2N1 [CPI-637]
Sel. over BRD4(1)-BRD (BRD4(1)-BRD; ref Taylor et al., 2016): 367 fold
IC50 (CBP-BRD; ref Taylor et al., 2016): 30 nM

solubility kinetic at 90 min (kinetic solubility): 6 ± 1 µM (≈ 2.8 µg/mL)
SMILES: Cc1cc2c(NC(=O)c3cc(NC(=O)c4ccco4)cc(-c4c(C)n[nH]c4C)c3)cccc2nn1 [Compound 4]

SMILES: CNC(=O)Nc1ccc2c(c1)CC[C@@]21OC(=O)N(CC(=O)N(Cc2ccc(F)cc2)[C@@H](C)C(F)(F)F)C1=O [A485]
TNF-α-induced IL-8 protein secretion [3]: significantly reducing its TNF-α-induced secretion
GI30 (MRC5 cells): 1.2 µM
TNF-α-induced expression of il1β, il8, mcp-1 and tnf-α (mRNA) [4]: significantly reduced the TNF-α-induced expression of all four tested genes

SMILES: COc1ccc(CCc2nc3cc(-c4c(C)noc4C)ccn3c2NC2CCCCC2)cc1Cl [UMB298]
Sel. over BRD4(1)-BRD (BRD4(1)-BRD; ref Muthengi et al., 2021): 72 fold
